Data: patent publication US20220088044A1, “SUBSTANCES FOR TREATMENT OF CORONAVIRUS INFECTION” (ScandiBio Therapeutics AB, priority 2020, published 2022)
Read-outs that look alike come from different tables or passages of the source.

Tests used:
[1] = system: patients with chronic hepatitis C; settings: 2 grams 2 times a day, compared to placebo; cited from earlier work
[2] = system: lamb model with increased pulmonary blood flow; settings: chronic treatment; cited from earlier work
[3] = cited from earlier work
[4] = cited from earlier work; remark: listed apart in the source
[5] = cited from earlier work; remark: listed apart in the source
[6] = system: acute myocardial infarction; settings: five controlled trials, n=3108; cited from earlier work
[7] = system: Pasteurella multocida infection; settings: mouse, in vivo; cited from earlier work
[8] = system: obese subjects with hepatic steatosis; experiment: Short-term dietary supplementation with serine in obese subjects with hepatic steatosis; type: in vivo, human
Procedure: To test the model-based predictions, we assessed the effect of short-term dietary supplementation with serine on fatty liver and fasting levels of plasma markers of liver functions in six obese subjects (BMI 32.5±2.70 kg/m2) with hepatic steatosis. Each patient received one oral dose of ˜20 g of L-serine (200 mg/kg) per day for 14 days. The supplementation was well-tolerated by all subjects. […] We examined the concept by testing if supplementation of GSH and NAD+ precursors for two weeks would decrease high fat diet induced liver fat accumulation in mice. Therefore, we gave serine 300 mg/kg/day and nicotinamide riboside (NR) 400 mg/kg/day la gavage as well as 1 g/l of NAC (N-acetyl-L-cysteine) in the drinking water for 14 days to high fat diet-fed mice.

aging mice = settings: mouse, in vivo; cited from earlier work
[9] = cited from earlier work; remark: listed apart in the source
[10] = system: adults with hereditary sensory and autonomic neuropathy type 1 (HSAN1); settings: 400 mg/kg/day, long-term (one to two years); cited from earlier work
traumatic brain injury = settings: mouse, in vivo; cited from earlier work
COPD exacerbations = settings: in vivo; cited from earlier work
[11] = system: patients with community-acquired pneumonia; settings: compared to conventional therapy; cited from earlier work
[12] = system: acute respiratory distress syndrome (ARDS); settings: human, in vivo; cited from earlier work
[13] = cited from earlier work; remark: listed apart in the source
HIV patients = settings: cited from earlier work
[14] = system: epithelial cells exposed to the H5N1 influenza A virus; settings: cited from earlier work
[15] = cited from earlier work; remark: listed apart in the source
[16] = cited from earlier work; remark: listed apart in the source
blood NAD+ [17] = settings: cited from earlier work
blood NAD+ [18] = settings: cited from earlier work; remark: listed apart in the source
mice = settings: cited from earlier work
premature new-borns = settings: 20 mg/kg/day; cited from earlier work
[19] = system: LPS-induced acute lung injury; settings: in vivo; cited from earlier work
[20] = after ingestion of supplemental nicotinamide; cited from earlier work

In the case of `CC(=O)O[C@H](CC(=O)[O-])C[N+](C)(C)C` [Acetyl-L-Carnitine], the “daily activity and fatigue” value [1] is listed as “increase daily activity in patients, reduce fatigue”.
In the case of `C[N+](C)(C)C[C@H](O)CC(=O)[O-]` [L-carnitine], the “lung carnitine homeostasis, oxidative stress, mitochondrial and endothelial function” value [2] is listed as “alleviates changes in lung carnitine homeostasis, reduces associated oxidative stress, and improves pulmonary mitochondrial function, NO signalling and eventually endothelial function”, the tolerability ([3]; in vivo) is listed as “usually well tolerated” and the “toxicity from over dosage” value ([3]; in vivo) is listed as “no reports of toxicity”. The absolute bioavailability ([4]; in vivo) was 15-16%, the “faecal excretion of total carnitine” value ([4]; in vivo) was “less than 1 % of the administered dose” and the “mean apparent terminal elimination half-life” value ([4]; in vivo) was 17.4 h. For the same compound, the mean distribution half-life ([4]; in vivo) was ~36 min, the “removal from plasma by dialysis” value ([4]; in vivo) was “easily removed from plasma by dialysis” and the “total body clearance (Dose/AUC including endogenous baseline concentrations), mean” value ([4]; in vivo) was 4.00 L/h. The “binding to plasma protein or albumin” value ([4]; tested at any concentration) was “not bound”, the solubility in acetone [5] was “insoluble” and the “solubility in water, hot alcohol” value [5] was “readily soluble”. The “heart failure, unstable angina, or myocardial reinfarction: daily 2 g versus 6 g” value [6] was “no significant differences”.
In the case of `N[C@@H](CO)C(=O)O` [L-serine], the “macrophage- and neutrophil-mediated inflammatory responses” value [7] is listed as “decrease the macrophage- and neutrophil-mediated inflammatory responses”, the “ALT, AST, and ALP levels” value ([8]; after 14 days supplementation) is listed as “significantly decreased” and the liver fat ([8]; after ~20 g L-serine (200 mg/kg) oral per day for 14 days, decreased significantly from 26.8±6.0%) is listed as 20.4±7.0%. For the same compound, the tolerability ([8]; ~20 g L-serine per day for 14 days) was “well-tolerated”, the “body weight, oxidative stress and inflammation” value (aging mice) was “reduce body weight by decreasing orexigenic peptide expression and reduces oxidative stress and inflammation” and the safety in humans ([9]; doses up to 400 mg/kg/day (around 25-30 g/day)) was “shown to be safe”. The safety in pregnancy ([9]; three daily doses of 5 g (190 mg/kg), pre- and postnatal treatment of 3-phosphoglycerate-dehydrogenase deficiency) was “safe even in pregnancy”, the “adverse effects (vital signs, physical examination, clinical laboratory)” value [10] was “did not reveal adverse effects” and the neuroprotection (traumatic brain injury) was “lead to neuroprotection”.
In the case of `CC(=O)N[C@@H](CS)C(=O)O` [NAC, N-acetylcysteine], the “number and effect of COPD exacerbations” value (COPD exacerbations) is given as “reduce the number and effect of COPD exacerbations”, the “inflammatory response and oxidative stress” value [11] is given as “improves inflammatory response and oxidative stress” and the “duration of stay in intensive care” value [12] is given as “has been shortened”. For the same compound, the “short-term mortality or 30-day mortality” value [12] was “did not contribute to reducing short-term mortality or 30-day mortality”, the half-life ([13]; adults) was 5.6 to 6 h and the “time to peak plasma concentration” value ([13]; after application) was 30 to 60 min. The absorption ([13]; after oral administration) was “rapidly absorbed”, the “share of amount passed to the blood determined in the lungs” value ([13]; after oral administration) was 48% and the “distribution volume (Vd)” value ([13]; in vivo) was 0.33 to 0.47 L/kg. The “excreted in urine in the form of sulfate and taurine” value ([13]; in vivo) was 22-30%, the “rate of binding to plasma proteins” value ([13]; in vivo) was “about 50%” and the “effect of food intake” value ([13]; oral) was “not affected”. The “glutathione levels in red blood cells” value (HIV patients; 900 mg or 1800 mg twice daily) was “increased significantly”, the “red blood cell oxidized glutathione levels” value (HIV patients; 900 mg or 1800 mg twice daily) was “decreased significantly” and the “glutathione: glutathione disulfide (GSH:GSSG) ratios” value (HIV patients; both doses compared to placebo) was “generally non-significant increased”. For the same compound, the inflammatory response [14] was “reduce”, the safety profile ([15]; HIV-infected patients, oral 6,000-8,000 mg daily for several months) was “good safety profile” and the safety in humans ([15]; daily dosage of 4-6 grams) was “shown to be safe”. For the same compound, the “serious adverse events or signs of intoxication” value ([15]; even at very high doses) was “serious adverse events or signs of intoxication are not observed”, the “incidence of most common adverse reactions (rash, urticaria/facial flushing, pruritus, nausea and vomiting)” value ([15]; in vivo) was “greater than 2%” and the “anaphylactic reactions, share of people” value ([15]; within 30 min after IV loading dose) was 3-6%.
For `NC(=O)c1ccc[n+]([C@@H]2O[C@H](CO)[C@@H](O)[C@H]2O)c1` [NR, Nicotinamide riboside], the “lowest observed adverse effect level” value ([16]; 90-day study) is listed as 1000 mg/kg/day, the “no observed adverse effect level” value ([16]; 90-day study) is listed as 300 mg/kg/day and the mortality ([16]; oral dose of 5000 mg/kg) is listed as “no mortality”. The tolerability (blood NAD+ [17]; oral, 250 mg up-titrated to 1000 mg twice daily, 9 days) was “well tolerated with no adverse events”, the “increase of blood NAD+, baseline to steady state” value (blood NAD+ [17]; p=0.001) was 100% and the “whole-blood NR, baseline to mean concentration at steady state” value (blood NAD+ [17]; p=0.03) was “Significant increases”. The “blood NAD+ metabolome” value (blood NAD+ [18]; single doses of 100, 300 and 1,000 mg) was “dose-dependent increases” and the “rise of human blood NAD+” value (blood NAD+ [18]; single oral dose, pilot study) was ≤ 2.7 fold.
For `CC(=O)N[C@@H](CSN=O)C(=O)O` [SNOAC, S-nitroso-N-acetylcysteine], the “expression of several important genes” value (mice; in vitro and in vivo) is listed as “induced a hypoxia-like response” and the “blood pressure in lungs and right ventricle (pulmonary artery hypertension)” value (mice; metabolite formed in mice treated with acetylcysteine) is listed as “increased blood pressure in the lungs and right ventricle of the heart”.
For `C[N+](C)(C)CC(O)CC(=O)[O-]` (stereo not shown) [carnitine], the side effects ([3]; doses of approximately 3 g/day) is given as “nausea, vomiting, abdominal cramps, diarrhoea, and a “fishy” body odor” and the “total carnitine concentrations in plasma and red blood cells” value (premature new-borns) is given as “increases total carnitine concentrations in plasma and red blood cells”.
For `O=C(O)c1cccnc1` [niacin], the “LPS-induced acute lung injury” value [19] is listed as “alleviate LPS-induced acute lung injury”.
For `NC(=O)c1cccnc1` [nicotinamide], the “flushing or glucose intolerance” value [20] is listed as “no cases of flushing or glucose intolerance have been reported”.
